Results from BindingDB's records for doi:10.1007/BF00173012 (Sandoz Pharma, 1994).
pKi: −log10 of the molar value. *1 amine or outer side, *2 acyl side, *3 side chain or, on linkers, in order; H or OH if unused. Where a SMILES comes first, the peptide text is derived from it. Bridges are numbered along the chain shown (N, C = ends). [ ]: non-standard residue; d: D form. The star is where a group is joined. ξ: configuration not given here. Phe(4-Cl) = N[C@@H](Cc1ccc(Cl)cc1)C(=O)O; d2Nal = N[C@H](Cc1ccc2ccccc2c1)C(=O)O; dNMeF = CN[C@H](Cc1ccccc1)C(=O)O; X1 = O=C(C(N[*:1])S[*:3])[*:2]; NMeA = CN[C@@H](C)C(=O)O; dNMeA = CN[C@H](C)C(=O)O; Abu = CC[C@H](N)C(=O)O; Ahp = NCCCCCCC(=O)O; Bn = c1ccc(C*)cc1; ξC = NC(CS)C(=O)O; Mpa = O=C(O)CCS

How the values were obtained:
[1] = target: Somatostatin receptor type 4 (Mus musculus, UniProt P49660)
Somatostatin receptor type 4, sequence (P49660 whole entry): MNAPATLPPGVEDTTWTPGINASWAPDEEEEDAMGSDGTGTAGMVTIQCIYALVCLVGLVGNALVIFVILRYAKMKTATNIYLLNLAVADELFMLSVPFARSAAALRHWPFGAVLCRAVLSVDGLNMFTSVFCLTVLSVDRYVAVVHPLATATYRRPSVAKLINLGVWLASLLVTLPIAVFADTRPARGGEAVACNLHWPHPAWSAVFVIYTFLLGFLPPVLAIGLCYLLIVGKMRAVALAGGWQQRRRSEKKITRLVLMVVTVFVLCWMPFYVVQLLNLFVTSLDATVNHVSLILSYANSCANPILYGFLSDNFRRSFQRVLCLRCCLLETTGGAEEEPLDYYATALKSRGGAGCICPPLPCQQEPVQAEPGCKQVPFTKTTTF

[2] = target: T1, Somatostatin receptor type 5 (Rattus norvegicus, UniProt P30938)
T1 sequence (P30938 whole entry): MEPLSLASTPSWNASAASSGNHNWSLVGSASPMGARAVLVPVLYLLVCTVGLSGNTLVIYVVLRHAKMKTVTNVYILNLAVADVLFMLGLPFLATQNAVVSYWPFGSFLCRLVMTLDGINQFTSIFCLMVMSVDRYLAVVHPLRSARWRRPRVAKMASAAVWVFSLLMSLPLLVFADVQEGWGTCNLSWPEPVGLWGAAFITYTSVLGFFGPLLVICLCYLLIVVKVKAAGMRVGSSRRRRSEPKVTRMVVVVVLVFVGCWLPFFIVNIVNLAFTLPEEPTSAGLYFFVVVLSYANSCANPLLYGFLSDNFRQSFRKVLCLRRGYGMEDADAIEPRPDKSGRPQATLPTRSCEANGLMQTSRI

[3] = target: Somatostatin receptor type 3 (Mus musculus, UniProt P30935)
Somatostatin receptor type 3, sequence (P30935 whole entry): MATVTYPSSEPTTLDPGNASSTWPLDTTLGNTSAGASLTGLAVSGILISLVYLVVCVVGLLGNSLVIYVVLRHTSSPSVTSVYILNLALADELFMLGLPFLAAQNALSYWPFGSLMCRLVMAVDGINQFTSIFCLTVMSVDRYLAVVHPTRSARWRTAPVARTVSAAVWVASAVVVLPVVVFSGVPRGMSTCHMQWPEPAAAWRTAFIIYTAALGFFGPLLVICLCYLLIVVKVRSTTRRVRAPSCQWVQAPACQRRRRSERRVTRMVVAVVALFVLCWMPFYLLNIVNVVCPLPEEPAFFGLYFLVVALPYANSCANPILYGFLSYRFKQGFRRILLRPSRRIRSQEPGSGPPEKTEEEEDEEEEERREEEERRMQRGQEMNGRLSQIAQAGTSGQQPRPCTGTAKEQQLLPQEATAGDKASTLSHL

[4] = target: Somatostatin receptor type 2 (Mus musculus, UniProt P30875)
Somatostatin receptor type 2, sequence (P30875 whole entry): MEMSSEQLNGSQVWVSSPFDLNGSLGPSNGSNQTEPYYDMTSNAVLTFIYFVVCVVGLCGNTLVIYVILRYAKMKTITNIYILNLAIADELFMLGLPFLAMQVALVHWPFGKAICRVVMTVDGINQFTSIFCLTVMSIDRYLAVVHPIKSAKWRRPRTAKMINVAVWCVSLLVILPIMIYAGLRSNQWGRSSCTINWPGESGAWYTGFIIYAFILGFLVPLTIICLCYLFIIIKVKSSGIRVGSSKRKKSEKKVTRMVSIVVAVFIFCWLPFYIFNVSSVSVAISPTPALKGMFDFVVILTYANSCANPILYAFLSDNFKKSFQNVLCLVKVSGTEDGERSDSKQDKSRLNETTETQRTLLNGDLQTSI

| Structure (SMILES) | pKi [1] | pKi [2] | pKi [3] | pKi [4] |
| --- | --- | --- | --- | --- |
| C[C@@H](O)[C@@H]1NC(=O)[C@H](CCCCN)NC(=O)[C@@H](Cc2c[nH]c3ccccc23)NC(=O)[C@H](Cc2ccccc2)NC(=O)[C@@H]2CCCN2C(=O)[C@H](Cc2ccccc2)NC1=O (cyclo(PF[dW]KTF)) | 6.00 | 8.49 | – | – |
| C[C@@H](O)[C@@H]1NC(=O)[C@H](CCCCN)NC(=O)[C@@H](Cc2c[nH]c3ccccc23)NC(=O)[C@H](Cc2ccccc2)NC(=O)[C@@H]2CSSCC(NC1=O)C(=O)NCCCCCCC(=O)N2 [(1R,4S,7S,10R,13S,16R)-4-[(R)-1-Hydroxyethyl]-7-(4-aminobutyl)-10-(1H-indole-3-ylmethyl)-13-benzyl-28,29-dithia-2,5,8,11,14,17,25-heptaazabicyclo[14.10.4]triacontane-3,6,9,12,15,18,26-heptone] (cyclo([Ahp]CF[dW]KT[ξC]); disulfide 2-7) | 6.00 | 8.92 | 10.15 | – |
| CC[C@@H]1NC(=O)[C@H](CCCCN)NC(=O)[C@@H](Cc2c[nH]c3ccccc23)NC(=O)[C@H](Cc2ccc(O)cc2)NC(=O)[C@H](C)N(C)C(=O)[C@H](Cc2ccccc2)NC1=O [BIM-23027] (cyclo([Abu]F[NMeA]Y[dW]K)) | 6.00 | 8.21 | – | – |
| CC(C)[C@H](NC(=O)[C@H](CCCCN)NC(=O)[C@@H](Cc1c[nH]c2ccccc12)NC(=O)[C@H](Cc1ccc(O)cc1)NC(=O)[C@H](Cc1ccccc1)NC(=O)[C@H](N)Cc1ccccc1)C(=O)N[C@@H](Cc1ccccc1)C(=O)N[C@H](C(N)=O)[C@@H](C)O [BIM-23058] (H-[dF]FY[dW]KVFT-NH2) | 7.11 | – | 10.52 | – |
| CC(C)[C@@H]1NC(=O)[C@H](CCCCN)NC(=O)[C@@H](Cc2c[nH]c3ccccc23)NC(=O)[C@H](Cc2ccc(O)cc2)NC(=O)[C@@H](NC(=O)[C@H](N)Cc2ccccc2)CSSC[C@@H](C(=O)N[C@@H](Cc2c[nH]c3ccccc23)C(N)=O)NC1=O [CAS_71306] (H-[dF]CY[dW]KVCW-NH2; disulfide 2-7) | 6.77 | – | 7.64 | 10.00 |
| CC(C)[C@@H]1NC(=O)[C@H](CCCCN)NC(=O)[C@@H](Cc2c[nH]c3ccccc23)NC(=O)[C@H](Cc2ccc(O)cc2)NC(=O)CCSSC(C(=O)N[C@@H](Cc2ccccc2)C(N)=O)NC1=O (stereo partly drawn) [CAS_117580-24-2] ([Mpa]Y[dW]KV[X1]F-NH2; disulfide 1-6) | 6.44 | 8.41 | 6.61 | 6.45 |
| C[C@@H](O)[C@H](NC(=O)[C@H](Cc1ccccc1)NC(=O)[C@@H](NC(=O)[C@H](CCCCN)NC(=O)[C@@H](Cc1c[nH]c2ccccc12)NC(=O)[C@H](Cc1ccccc1)NC(=O)[C@H](Cc1ccccc1)NC(=O)[C@H](N)Cc1ccccc1)[C@@H](C)O)C(N)=O [CAS_133073-82-2] (H-[dF]FF[dW]KTFT-NH2) | 7.74 | – | 9.39 | – |
| CC(C)[C@H](NC(=O)[C@H](CCCCN)NC(=O)[C@@H](Cc1c[nH]c2ccccc12)NC(=O)[C@H](Cc1ccc(O)cc1)NC(=O)[C@H](C)NC(=O)[C@H](N)Cc1ccc2ccccc2c1)C(=O)N[C@@H](C)C(=O)N[C@H](C(N)=O)[C@@H](C)O [D-Nal-Ala-Tyr-D-Trp-Lys-Val-Ala-Thr-NH2] (H-[d2Nal]AY[dW]KVAT-NH2) | 6.00 | – | – | – |
| C[C@@H](O)[C@H](NC(=O)[C@@H]1CSSC[C@H](NC(=O)[C@H](N)Cc2ccc3ccccc3c2)C(=O)N[C@@H](Cc2ccc(O)cc2)C(=O)N[C@H](Cc2c[nH]c3ccccc23)C(=O)N[C@@H](CCCCN)C(=O)N[C@@H]([C@@H](C)O)C(=O)N1)C(N)=O [D-Nal-c[Cys-Tyr-D-Trp-Lys-Thr-Cys]-Thr-NH2] | – | – | – | 11.00 |
| CC(C)[C@H](NC(=O)[C@H](CCCCN)NC(=O)[C@@H](Cc1c[nH]c2ccccc12)NC(=O)[C@H](Cc1ccc(O)cc1)NC(=O)[C@H](C)NC(=O)[C@H](N)Cc1ccccc1)C(=O)N[C@@H](C)C(=O)N[C@H](Cc1ccc2ccccc2c1)C(N)=O [D-Phe-AIa-Tyr-D-Trp-Lys-Val-Ala-D-Nal-NH2] (H-[dF]AY[dW]KVA[d2Nal]-NH2) | 6.00 | 8.23 | – | – |
| CC(C)[C@H](NC(=O)[C@H](CCCCN)NC(=O)[C@@H](Cc1c[nH]c2ccccc12)NC(=O)[C@H](Cc1ccc(O)cc1)NC(=O)[C@H](Cc1ccccc1)NC(=O)[C@H](N)Cc1ccccc1)C(=O)N[C@@H](Cc1ccccc1)C(=O)N[C@H](Cc1ccccc1)C(N)=O [D-Phe-Phe-Tyr-D-Trp-Lys-Val-Phe-D-Phe-NH2] (H-[dF]FY[dW]KVF[dF]-NH2) | 6.60 | 8.48 | – | – |
| C[C@@H](O)[C@@H]1NC(=O)[C@H](Cc2ccccc2)NC(=O)[C@H]([C@@H](C)O)NC(=O)[C@H](CCCCN)NC(=O)[C@@H](Cc2c[nH]c3ccccc23)NC(=O)[C@H](Cc2ccccc2)NC(=O)[C@H](Cc2ccc(Cl)cc2)NC(=O)[C@H](CC(N)=O)NC(=O)[C@H](CCCCN)NC(=O)[C@@H](N)CSSC[C@@H](C(=O)O)NC(=O)[C@H](CO)NC1=O [EC5-21] (H-CKN[Phe(4-Cl)]F[dW]KTFTSC-OH; disulfide 1-12) | 8.74 | – | – | 11.00 |
| C[C@@H](O)[C@@H]1NC(=O)[C@H](CCCCN)NC(=O)[C@@H](Cc2c[nH]c3ccccc23)NC(=O)[C@H](Cc2c[nH]c3ccccc23)NC(=O)[C@H](Cc2ccccc2)NC(=O)CCCCCCNC(=O)[C@H](Cc2ccccc2)NC1=O [L-362855] (cyclo([Ahp]FW[dW]KTF)) | 7.20 | 11.00 | – | – |
| C[C@@H](O)[C@@H]1NC(=O)[C@H](CCCCN)NC(=O)[C@@H](Cc2c[nH]c3ccccc23)NC(=O)[C@H](Cc2ccc(Cl)cc2)NC(=O)[C@H](Cc2ccccc2)NC(=O)CCCCCCNC(=O)[C@H](Cc2ccccc2)NC1=O [L-362862] (cyclo([Ahp]F[Phe(4-Cl)][dW]KTF)) | 7.36 | – | – | – |
| CSCC[C@H](NC(=O)[C@H](C)NC(=O)[C@@H]1CCCN1C(=O)[C@H](CC(N)=O)NC(=O)[C@H](CO)NC(=O)[C@H](CC(N)=O)NC(=O)[C@H](C)NC(=O)[C@@H](N)CO)C(=O)N[C@@H](C)C(=O)N1CCC[C@H]1C(=O)N[C@@H](CCCNC(=N)N)C(=O)N[C@@H](CCC(=O)O)C(=O)N[C@@H](CCCNC(=N)N)C(=O)N[C@@H](CCCCN)C(=O)N[C@@H](C)C(=O)NCC(=O)N[C@H]1CSSC[C@@H](C(=O)O)NC(=O)[C@H](CO)NC(=O)[C@H]([C@@H](C)O)NC(=O)[C@H](Cc2ccccc2)NC(=O)[C@H]([C@@H](C)O)NC(=O)[C@H](CCCCN)NC(=O)[C@H](Cc2c[nH]c3ccccc23)NC(=O)[C@H](Cc2ccccc2)NC(=O)[C@H](Cc2ccccc2)NC(=O)[C@H](CC(N)=O)NC(=O)[C@H](CCCCN)NC1=O [L-Ser-L-Ala-L-Asn-L-Ser-L-Asn-L-Pro-L-Ala-L-Met-L-Ala-L-Pro-L-Arg-L-Glu-L-Arg-L-Lys-L-Ala-Gly-L-Cys(1)-L-Lys-L-Asn-L-Phe-L-Phe-L-Trp-L-Lys-L-Thr-L-Phe-L-Thr-L-Ser-L-Cys(1)-OH] | 9.55 | – | – | – |
| C[C@H](O)[C@H]1NC(=O)[C@H](CCCCN)NC(=O)[C@@H](Cc2c[nH]c3ccccc23)NC(=O)[C@@H](Cc2ccccc2)NC(=O)[C@@H](C)N(C)C(=O)[C@@H](Cc2ccccc2)N(C)C1=O [N-Methylcyclo(D-Ala-D-Phe-D-Trp-L-Lys-D-Thr-N-methyl-D-Phe-)] (cyclo(K[dT][dNMeF][dNMeA][dF][dW])) | 6.00 | 6.39 | – | – |
| C[C@@H](OCc1ccccc1)[C@@H]1NC(=O)[C@H](CCCCN)NC(=O)[C@@H](Cc2c[nH]c3ccccc23)NC(=O)[C@H](Cc2ccccc2)NC(=O)CCCCCCNC1=O [c[Aha-Phe-D-Trp-Lys-Thr(Bzl)]] (cyclo([Ahp]F[dW]KT(Bn))) | 6.00 | – | – | – |
